In article PMC3352596 (Bioorganic & medicinal chemistry letters, 2011):

How the values were obtained:
Huh7 cells = assay: cytotoxicity in Huh7 cells by amplification of ribosomal RNA; type: cell-based; details: for inhibition at 10 µM: Homo sapiens, Huh-7, read-out: Anti-HCV activity: % inhib @ 10 μM in Huh7 cells, rRNA; for cytotoxicity / toxicity to cell lines: Huh7, PBM, CEM, Vero cell lines
[1] = test system: HCV RNA replication (subgenomic HCV replicon); assay: inhibition of HCV RNA replication in Huh7 cells, subgenomic HCV replicon system; type: cell-based, Hepatitis C virus; details: for antiviral activity or cytotoxicity: anti-HCV, anti-HIV and cytotoxicity assays of Table 1; for inhibition at 10 µM: Hepatitis C virus, Huh-7, read-out: Anti-HCV activity: % inhib @ 10 μM in Huh7 cells, HCV, 10 μM, Huh7 cells, HCV RNA
[2] = cytotoxicity in CEM cells; type: cell-based; details: human, lymphoblastoid CEM cells
adenosine deaminase [3] = target: T1, adenosine deaminase (Bos taurus, UniProt P56658); assay: inhibition of ADA catalyzed conversion of adenosine to inosine; type: biochemical; details: compounds tested at 10 μM
T1 sequence (P56658 1-363): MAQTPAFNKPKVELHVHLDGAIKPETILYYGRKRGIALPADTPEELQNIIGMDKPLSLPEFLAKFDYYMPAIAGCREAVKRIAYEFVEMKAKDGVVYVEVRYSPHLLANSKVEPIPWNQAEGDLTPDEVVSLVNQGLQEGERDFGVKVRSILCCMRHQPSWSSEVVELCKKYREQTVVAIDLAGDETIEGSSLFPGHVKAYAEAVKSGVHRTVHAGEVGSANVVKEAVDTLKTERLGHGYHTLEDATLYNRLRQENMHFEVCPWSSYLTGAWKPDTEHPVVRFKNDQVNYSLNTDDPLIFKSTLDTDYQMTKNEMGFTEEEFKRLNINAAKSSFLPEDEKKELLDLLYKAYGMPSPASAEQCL

adenosine deaminase [4] = target: T1, adenosine deaminase; assay: evaluation as substrates of adenosine deaminase; type: biochemical
[5] = stability in pH 7.4 phosphate buffer; type: physicochemical; details: 23 °C, 3 days
[6] = cited from earlier work
HCV = details: non-obligatory chain terminators toward RNA elongation; cited from earlier work

Cc1nc(N)nc2c1ncn2[C@@H]1O[C@H](CO)[C@@H](O)[C@@]1(C)O [Compound 6]
inhibition at 10 µM (Huh7 cells): 0%

CCOC(=O)[C@H](C)NP(=O)(OC[C@H]1O[C@@H](n2cnc3c(C)nc(N)nc32)[C@](C)(O)[C@@H]1O)Oc1ccccc1 (stereo partly shown) [Compound 7]
anti-HCV activity / inhibition of HCV replicon RNA replication ([1]; up to 10 μM): did not display any inhibition of HCV replicon RNA replication | inhibition at 10 µM (Huh7 cells): 0%

C[C@@]1(OC(=O)c2ccccc2)[C@H](OC(=O)c2ccccc2)[C@@H](COC(=O)c2ccccc2)O[C@H]1n1cnc2c(N)nc(NO)nc21 [Compound 26]
cytotoxicity / toxicity to cell lines (Huh7 cells): broad toxicity against most cell lines tested | CC50 [2]: 27.4 µM

C[C@@]1(O)[C@H](O)[C@@H](CO)O[C@H]1n1cnc2c1nc(N)n1nc(-c3ccco3)nc21 [Compound 13b]
ability to inhibit ADA catalyzed conversion of adenosine to inosine (adenosine deaminase [3]): Only compound 21 was found effective | inhibition at 10 µM (Huh7 cells): 0%

C[C@@]1(O)[C@H](O)[C@@H](CO)O[C@H]1n1cnc2c(N)nc(-n3ccnn3)nc21 [Compound 21]
antiviral activity or cytotoxicity [1]: no antiviral activity or cytotoxicity | ability to inhibit ADA catalyzed conversion of adenosine to inosine (adenosine deaminase [3]): effective | inhibition at 10 µM (Huh7 cells): 0% | substrate of adenosine deaminase (nitrogen to oxygen transformation) (adenosine deaminase [4]): none underwent a nitrogen to oxygen transformation

COc1nc(Cl)nc2c1ncn2[C@@H]1O[C@H](CO)[C@@H](O)[C@@]1(C)O [Compound 18]
inhibition at 10 µM [1]: 14.3% | antiviral activity or cytotoxicity [1]: no antiviral activity or cytotoxicity

C[C@@]1(O)[C@H](O)[C@@H](CO)O[C@H]1n1cnc2c(N)nc(-n3cc([Si](C)(C)C)nn3)nc21 [Compound 22]
antiviral activity or cytotoxicity [1]: no antiviral activity or cytotoxicity | inhibition at 10 µM (Huh7 cells): 0%

Cc1nc2c3ncn([C@@H]4O[C@H](CO)[C@@H](O)[C@@]4(C)O)c3nc(N)n2n1 [Compound 13a]
inhibition at 10 µM (Huh7 cells): 0%

C[C@@]1(OC(=O)c2ccccc2)[C@H](OC(=O)c2ccccc2)[C@@H](COC(=O)c2ccccc2)O[C@H]1n1cnc2c(Cl)nc(NO)nc21 [Compound 27]
inhibition at 10 µM (Huh7 cells): 99.9% | cytotoxicity / toxicity to cell lines (Huh7 cells): broad toxicity against most cell lines tested

C[C@@]1(O)[C@H](O)[C@@H](CO)O[C@H]1n1cnc2c(N)nc(NN)nc21 [Compound 19]
cytotoxicity / toxicity to cell lines (Huh7 cells): no observed cytotoxicity | stability in phosphate buffer [5]: complete conversion of 19 to a complex mixture of products after 3 days

CCOP(=O)(OCC)c1nc(N)nc2c1ncn2[C@@H]1O[C@H](CO)[C@@H](O)[C@@]1(C)O [Compound 9]
inhibition at 10 µM [1]: 18.7% | ability to inhibit ADA catalyzed conversion of adenosine to inosine (adenosine deaminase [3]): Only compound 21 was found effective | inhibition at 10 µM (Huh7 cells): 14.8% | substrate of adenosine deaminase (nitrogen to oxygen transformation) (adenosine deaminase [4]): none underwent a nitrogen to oxygen transformation

C[C@@]1(O)[C@H](O)[C@@H](CO)O[C@H]1n1cnc2c(N)n[nH]c(=O)c21 [Compound 32, 4-amino-1-(2-methyl-β-D-ribofuranosyl)-3H-imidazo[4,5-d] pyriazin-7-(6H)-one]
ability to inhibit ADA catalyzed conversion of adenosine to inosine (adenosine deaminase [3]): Only compound 21 was found effective | inhibition at 10 µM (Huh7 cells): 0% | substrate of adenosine deaminase (nitrogen to oxygen transformation) (adenosine deaminase [4]): none underwent a nitrogen to oxygen transformation

C[C@@]1(O)[C@H](O)[C@@H](CO)O[C@H]1n1cnc2c(N)nc(Cl)nc21 [Compound 17]
antiviral activity or cytotoxicity [1]: no antiviral activity or cytotoxicity

C[C@@]1(O)[C@H](O)[C@@H](CO)O[C@H]1n1cnc2c(=O)[nH]c(N)nc21 [Compound 2, 2′-C-methyl guanosine]
in vivo bioavailability [6]: poor bioavailability | in vitro anti-HCV activity (HCV): selective in vitro anti-HCV activity

C[C@@]1(O)[C@H](O)[C@@H](CO)O[C@H]1n1cnc2c(N)nc(N=[N+]=[N-])nc21 [Compound 20]
antiviral activity or cytotoxicity [1]: no antiviral activity or cytotoxicity | inhibition at 10 µM (Huh7 cells): 0%

C[C@@]1(O)[C@H](O)[C@@H](CO)O[C@H]1n1cnc2c(=O)[nH]nc(N)c21 [Compound 35, 7-amino-1-(2-methyl-δ -D-ribofuranosyl)-1H-imidazo [4,5-d] pyridazin-4-(5H)-one]
ability to inhibit ADA catalyzed conversion of adenosine to inosine (adenosine deaminase [3]): Only compound 21 was found effective | inhibition at 10 µM (Huh7 cells): 0%

CCOP(=O)(O)c1nc(N)nc2c1ncn2[C@@H]1O[C@H](CO)[C@@H](O)[C@@]1(C)O [Compound 10]
inhibition at 10 µM [1]: 19.3% | ability to inhibit ADA catalyzed conversion of adenosine to inosine (adenosine deaminase [3]): Only compound 21 was found effective | substrate of adenosine deaminase (nitrogen to oxygen transformation) (adenosine deaminase [4]): none underwent a nitrogen to oxygen transformation

C[C@@]1(O)[C@H](O)[C@@H](CO)O[C@H]1n1cnc2c(N)ncnc21 [Compound 1, 2′-C-Methyl adenosine]
in vivo bioavailability [6]: poor bioavailability | in vitro anti-HCV activity (HCV): selective in vitro anti-HCV activity

C[C@@]1(O)[C@H](O)[C@@H](CO)O[C@H]1n1cnc2c(=N)n(N)[nH]c(=O)c21 [Compound 33]
inhibition at 10 µM (Huh7 cells): 0%
